The test system of series [1] is adult males with FXS. Conditions: of 3 adult males with FXS, cited from earlier work.
Series [2] concerns drinking-in-the-dark mouse model. The settings on record: cited from earlier work.
For series [3], the system named is sAPP. Kind of series: plasma sAPP total by ELISA pre- and post-acamprosate. The format is in vivo, human. The settings on record: individual patients 1-6, titled as diagnosed with FXS; after treatment. In general terms: In an ELISA, binding on a coated surface is turned into a signal by an enzyme label.
Series [4] has as its system youths symptomatic for an autistic disorder. Conditions: mean dose 1,110 mg/day, 10 to 30 weeks; cited from earlier work.
For series [5], the system named is sAPP. Kind of series: plasma sAPP total by ELISA pre- and post-acamprosate. Format: in vivo, human. The text has this: For sAPP levels, the Test plasma samples should be measured soon after collection. […] Just before assay, we thawed the test samples at a low temperature and mixed them completely. The plasma samples should be diluted appropriately with the EIA buffer, if needed. Duplicate measurement of test samples and standard are recommended. We used test samples in neutral pH range, and avoided the contaminations of organic solvent that may affect the measurement. Regarding the standard to quantify levels of sAPP, we prepared a series of sAPP standards in EIA buffer by serial dilutions, from 0.39 ng/mL to 25 ng/mL.
The ELISA plate was pre-coated with anti-human APP (R12A1) mouse IgG (IBL). First, the wells for reagent blank was determined, and 100 μL each of “EIA buffer” or 10 mM NaHCO3 buffer was added into the wells. Likewise, wells were assigned for test sample blank, test sample and diluted standard. Then 100 μL each of test sample blank, test sample and dilutions of standard was added into the appropriate wells. The test sample included the plasma sample from each subject, which may vary from 5-25 μl, made up to 100 μL with the EIA buffer. Each pre-coated plates was incubated overnight at 4° C. after covering it tightly with a plate lid. The plate was kept onto a rocker with gentle shaking. The next day, each well of the pre-coated plate was vigorously washed with wash buffer containing 0.05% Tween20 in phosphate buffer. This was performed by filling each well with wash buffer, leaving the pre-coated plate laid for 15-30 seconds and removing wash buffer completely from the plate by snapping. This procedure was repeated five times. After removing the remaining liquid from all wells completely by snapping the plate onto paper towel, we added 100 μL of labeled antibody solution into the wells of test samples, diluted standard and test sample blank. HRP labeled anti-Human APP (R101A4) mouse IgG from IBL was used. The plate was incubated for 30 minutes at 4° C. after covering it with plate lid, and then washed the plate 5 times in the same manner as described before. To develop the color, 100 μL of the Chromogen (TMB solution) was adding into the wells, and the plate was incubated for 30 minutes at room temperature in the dark.
When the liquid started turning blue (by addition of the Chromogen), 100 μL of the Stop solution (1N H2SO4) was added into the wells. […] A plate reader was used and measurements were conducted at 450 nm against a reagent blank. […]
The first project enrolled 12 youth aged 5 to 17 years with fragile X syndrome and comorbid ASD in a 10-week open-label trial of acamprosate. […] Plasma sAPP total and sAPPα were determined in serum using the ELISA kit obtained from Immuno Biological Laboratories (IBL, Gumma, Japan). […]

Values joined by “and” are separate entries in the source; they are usually repeats but may differ in a detail not shown here. Identical values can stand only once.

Take `CC(=O)NCCCS(=O)(=O)O.[Ca]` [acamprosate, Calcium Acetylhomotaurine]: the “subjects with non-treatment limiting gastrointestinal distress (emesis and/or nausea)” value in series [1] is reported as “Two subjects”. For the same compound, the “subjects with significant positive clinical response as measured by the CGI-I” value in series [1] (mean dose 1,221 mg/day, mean duration 21.3 weeks) is recorded as 3. Also, the alcohol intake entry in series [2] is on record as “reduced alcohol intake”. Besides, the “sAPP (total)-CP, Week 12” value in series [3] was 5.561 ng/mL and 25.16 ng/mL and 12.84 ng/mL and 8.077 ng/mL and 56.8 ng/mL and 7.547 ng/mL. Also, the “youths judged treatment responders” value in series [4] is “five of six”. Also, in series [5] (individual patients 1-6, baseline to Week 12), the “fractional change in sAPP (total)-CP” value is −0.8279 and −0.3066 and −0.0102 and −0.1029 and −0.437 and −0.544. For the same compound, the “mean sAPP total post-treatment” value in series [5] (pooled 15 participants (9 FXS, 6 idiopathic ASD), pre-treatment 32.6±38.3 ng/mL, p=0.01) amounted to 21.4 ± 32.3 ng/mL. For the same compound, the “levels of both sAPP total and sAPPα, direction of change per sample” value in series [5] (pooled 15 subjects) is given as “reduced with treatment in every sample tested except in one subject with idiopathic ASD where sAPPα was unchanged”. Besides, the “mean sAPP total levels at endpoint” value in series [5] (six subjects of the 12-week trial, baseline 34.7 ng/mL, p=0.02) stood at 19.3 ng/mL.

The record behind these values is US9770423B2, “Modulation sAPP, sAAPα and BDNF levels in individuals diagnosed with FXS and ASD” (Indiana University Research and Technology Corp., priority 2012, dated 2017).
